Assay results reported in ChEMBL document CHEMBL5126670, “Structure-Activity Relationships for the N-Me- Versus N-H-Amide Modification to Macrocyclic ent-Verticilide Antiarrhythmics” (ACS Med Chem Lett, 2022).
Activity calls are given as the source filed them. The rule behind the calls is not given here.

The molecules below were run against Ryanodine receptor 2 (Mus musculus) (UniProt E9Q401) (assay: Inhibition of RyR2 in Casq2 gene knockout mouse cardiomyocytes assessed as reduction in calcium sparks frequency at 25 uM incubated for 15 mins by calcium sparks assay). Conditions: Cardiomyocyte.
Ryanodine receptor 2 (Mus musculus), sequence (E9Q401 whole entry): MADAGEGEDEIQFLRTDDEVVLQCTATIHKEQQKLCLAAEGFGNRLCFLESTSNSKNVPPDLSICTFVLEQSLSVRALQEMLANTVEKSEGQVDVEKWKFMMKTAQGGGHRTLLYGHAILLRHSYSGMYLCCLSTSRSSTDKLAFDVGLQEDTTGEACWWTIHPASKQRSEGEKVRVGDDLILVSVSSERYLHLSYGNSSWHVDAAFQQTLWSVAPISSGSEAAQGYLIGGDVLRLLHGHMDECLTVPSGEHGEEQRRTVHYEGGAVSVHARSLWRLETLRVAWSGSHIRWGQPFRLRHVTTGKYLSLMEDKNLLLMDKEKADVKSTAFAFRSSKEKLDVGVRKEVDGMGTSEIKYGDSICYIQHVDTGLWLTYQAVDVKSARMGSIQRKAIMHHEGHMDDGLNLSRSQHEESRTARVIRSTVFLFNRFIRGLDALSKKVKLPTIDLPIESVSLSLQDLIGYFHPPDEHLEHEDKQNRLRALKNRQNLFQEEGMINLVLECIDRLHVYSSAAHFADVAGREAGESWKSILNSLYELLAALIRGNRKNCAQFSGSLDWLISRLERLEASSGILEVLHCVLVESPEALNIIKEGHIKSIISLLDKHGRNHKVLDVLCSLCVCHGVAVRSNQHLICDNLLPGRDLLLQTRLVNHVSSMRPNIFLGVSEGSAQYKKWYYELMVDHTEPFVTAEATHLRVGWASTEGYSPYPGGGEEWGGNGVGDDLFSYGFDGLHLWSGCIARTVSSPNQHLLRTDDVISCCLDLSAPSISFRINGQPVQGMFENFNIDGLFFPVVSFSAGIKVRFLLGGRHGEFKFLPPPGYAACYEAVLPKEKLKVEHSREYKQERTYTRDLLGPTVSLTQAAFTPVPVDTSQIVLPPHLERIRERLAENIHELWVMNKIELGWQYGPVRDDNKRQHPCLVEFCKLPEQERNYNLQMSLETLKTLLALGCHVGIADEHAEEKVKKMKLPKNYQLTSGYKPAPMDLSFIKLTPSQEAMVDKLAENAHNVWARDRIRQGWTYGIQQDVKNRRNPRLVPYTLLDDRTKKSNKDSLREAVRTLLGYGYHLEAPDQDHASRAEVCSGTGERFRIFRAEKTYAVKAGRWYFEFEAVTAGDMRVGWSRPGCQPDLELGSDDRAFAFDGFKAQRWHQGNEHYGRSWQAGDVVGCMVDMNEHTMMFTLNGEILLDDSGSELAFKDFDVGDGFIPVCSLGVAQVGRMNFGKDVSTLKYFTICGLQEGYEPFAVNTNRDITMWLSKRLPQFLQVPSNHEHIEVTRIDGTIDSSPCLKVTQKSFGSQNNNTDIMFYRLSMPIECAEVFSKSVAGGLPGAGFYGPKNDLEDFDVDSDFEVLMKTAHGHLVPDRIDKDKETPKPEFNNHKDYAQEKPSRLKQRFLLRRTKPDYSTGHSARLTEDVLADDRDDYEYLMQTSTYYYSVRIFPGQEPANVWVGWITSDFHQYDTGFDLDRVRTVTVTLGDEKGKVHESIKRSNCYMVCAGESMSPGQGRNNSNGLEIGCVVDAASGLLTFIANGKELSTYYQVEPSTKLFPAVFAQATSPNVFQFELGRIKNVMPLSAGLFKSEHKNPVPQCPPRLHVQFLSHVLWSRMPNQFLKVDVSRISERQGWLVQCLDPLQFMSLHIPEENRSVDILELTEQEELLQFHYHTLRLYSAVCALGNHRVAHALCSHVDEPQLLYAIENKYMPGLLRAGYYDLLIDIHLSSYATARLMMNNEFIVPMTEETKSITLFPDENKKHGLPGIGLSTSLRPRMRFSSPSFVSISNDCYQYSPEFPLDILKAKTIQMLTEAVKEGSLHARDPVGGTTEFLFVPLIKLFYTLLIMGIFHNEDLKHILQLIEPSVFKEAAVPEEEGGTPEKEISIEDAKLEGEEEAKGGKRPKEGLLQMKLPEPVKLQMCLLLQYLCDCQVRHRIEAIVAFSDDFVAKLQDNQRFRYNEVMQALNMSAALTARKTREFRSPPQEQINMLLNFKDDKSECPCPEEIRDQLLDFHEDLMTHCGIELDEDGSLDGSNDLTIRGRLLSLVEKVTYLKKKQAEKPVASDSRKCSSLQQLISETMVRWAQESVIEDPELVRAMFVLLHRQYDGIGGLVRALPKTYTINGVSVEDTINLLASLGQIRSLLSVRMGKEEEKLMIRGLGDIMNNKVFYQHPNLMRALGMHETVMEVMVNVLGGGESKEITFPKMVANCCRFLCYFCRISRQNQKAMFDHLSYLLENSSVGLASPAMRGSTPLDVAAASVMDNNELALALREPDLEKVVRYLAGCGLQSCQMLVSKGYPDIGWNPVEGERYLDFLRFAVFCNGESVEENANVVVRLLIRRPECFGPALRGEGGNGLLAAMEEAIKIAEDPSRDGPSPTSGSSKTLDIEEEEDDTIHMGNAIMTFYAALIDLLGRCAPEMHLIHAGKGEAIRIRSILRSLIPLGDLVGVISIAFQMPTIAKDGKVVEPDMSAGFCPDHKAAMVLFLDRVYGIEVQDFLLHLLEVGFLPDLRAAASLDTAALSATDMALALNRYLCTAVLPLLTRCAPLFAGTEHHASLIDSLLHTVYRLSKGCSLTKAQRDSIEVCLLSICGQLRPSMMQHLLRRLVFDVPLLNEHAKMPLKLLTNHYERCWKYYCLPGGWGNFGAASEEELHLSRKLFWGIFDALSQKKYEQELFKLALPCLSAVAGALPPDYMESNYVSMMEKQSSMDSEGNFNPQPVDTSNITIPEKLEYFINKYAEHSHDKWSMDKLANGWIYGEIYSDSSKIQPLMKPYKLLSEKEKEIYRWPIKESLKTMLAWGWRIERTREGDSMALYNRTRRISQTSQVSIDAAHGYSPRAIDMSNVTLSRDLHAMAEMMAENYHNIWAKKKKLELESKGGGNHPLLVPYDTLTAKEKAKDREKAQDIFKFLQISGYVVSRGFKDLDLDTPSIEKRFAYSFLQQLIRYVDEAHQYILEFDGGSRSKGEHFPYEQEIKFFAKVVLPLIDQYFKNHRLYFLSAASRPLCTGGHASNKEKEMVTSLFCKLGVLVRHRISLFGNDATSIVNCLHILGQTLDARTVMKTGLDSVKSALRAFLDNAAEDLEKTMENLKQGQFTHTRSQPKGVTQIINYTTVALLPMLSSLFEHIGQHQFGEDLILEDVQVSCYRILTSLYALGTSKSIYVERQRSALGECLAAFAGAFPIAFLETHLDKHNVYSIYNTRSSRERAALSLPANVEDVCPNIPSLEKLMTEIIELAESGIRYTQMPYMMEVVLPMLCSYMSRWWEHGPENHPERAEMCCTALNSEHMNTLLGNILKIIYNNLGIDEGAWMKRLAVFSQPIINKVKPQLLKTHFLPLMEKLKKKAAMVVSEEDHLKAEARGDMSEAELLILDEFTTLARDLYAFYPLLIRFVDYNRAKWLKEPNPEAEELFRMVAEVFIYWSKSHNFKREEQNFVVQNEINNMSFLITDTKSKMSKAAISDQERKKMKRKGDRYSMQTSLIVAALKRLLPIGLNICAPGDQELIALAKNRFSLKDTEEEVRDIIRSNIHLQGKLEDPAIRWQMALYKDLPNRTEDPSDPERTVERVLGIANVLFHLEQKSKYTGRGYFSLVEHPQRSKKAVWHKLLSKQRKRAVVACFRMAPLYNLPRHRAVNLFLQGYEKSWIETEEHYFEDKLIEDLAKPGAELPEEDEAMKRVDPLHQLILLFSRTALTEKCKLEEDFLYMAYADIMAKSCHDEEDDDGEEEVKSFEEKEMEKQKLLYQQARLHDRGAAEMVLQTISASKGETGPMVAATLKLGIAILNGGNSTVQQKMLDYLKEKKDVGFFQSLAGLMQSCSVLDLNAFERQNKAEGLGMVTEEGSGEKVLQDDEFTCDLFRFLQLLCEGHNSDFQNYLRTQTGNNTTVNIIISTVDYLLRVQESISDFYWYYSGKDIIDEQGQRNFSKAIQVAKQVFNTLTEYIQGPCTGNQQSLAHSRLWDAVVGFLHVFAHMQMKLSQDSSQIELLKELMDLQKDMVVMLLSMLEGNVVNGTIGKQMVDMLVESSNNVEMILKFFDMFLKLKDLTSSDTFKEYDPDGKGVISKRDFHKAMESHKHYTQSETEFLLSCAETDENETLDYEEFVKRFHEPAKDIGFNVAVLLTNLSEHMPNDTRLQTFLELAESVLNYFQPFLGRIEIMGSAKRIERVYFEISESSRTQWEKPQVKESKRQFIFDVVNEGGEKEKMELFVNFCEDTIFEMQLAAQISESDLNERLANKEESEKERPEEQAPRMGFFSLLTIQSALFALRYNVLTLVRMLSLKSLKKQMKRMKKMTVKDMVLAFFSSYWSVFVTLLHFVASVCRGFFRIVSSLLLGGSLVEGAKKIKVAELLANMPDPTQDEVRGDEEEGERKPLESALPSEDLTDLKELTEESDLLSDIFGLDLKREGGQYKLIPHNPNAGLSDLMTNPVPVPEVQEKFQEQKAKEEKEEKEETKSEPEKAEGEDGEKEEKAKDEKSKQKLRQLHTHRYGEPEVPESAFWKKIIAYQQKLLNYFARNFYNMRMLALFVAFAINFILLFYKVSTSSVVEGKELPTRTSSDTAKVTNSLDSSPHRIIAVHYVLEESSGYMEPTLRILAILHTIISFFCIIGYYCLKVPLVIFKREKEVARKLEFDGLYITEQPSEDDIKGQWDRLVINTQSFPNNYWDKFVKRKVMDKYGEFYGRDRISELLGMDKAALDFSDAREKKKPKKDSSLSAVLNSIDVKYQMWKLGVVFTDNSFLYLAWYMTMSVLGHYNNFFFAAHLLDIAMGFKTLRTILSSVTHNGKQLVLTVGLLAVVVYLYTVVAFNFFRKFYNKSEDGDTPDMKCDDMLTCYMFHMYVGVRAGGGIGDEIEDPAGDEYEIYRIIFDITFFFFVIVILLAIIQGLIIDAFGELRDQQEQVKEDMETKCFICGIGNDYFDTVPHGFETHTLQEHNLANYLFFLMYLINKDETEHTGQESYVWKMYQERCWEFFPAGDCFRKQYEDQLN
Format: cell-based

| Structure (SMILES) | inhibition |
| --- | --- |
| CCCCC[C@@H]1OC(=O)[C@@H](C)N(C)C(=O)[C@H](CCCCC)OC(=O)[C@@H](C)NC(=O)[C@H](CCCCC)OC(=O)[C@@H](C)NC1=O | Active |
| CCCCC[C@@H]1OC(=O)[C@@H](C)NC(=O)[C@H](CCCCC)OC(=O)[C@@H](C)NC(=O)[C@H](CCCCC)OC(=O)[C@@H](C)NC1=O | Active |
| CCCCC[C@@H]1OC(=O)[C@@H](C)N(C)C(=O)[C@H](CCCCC)OC(=O)[C@@H](C)N(C)C(=O)[C@H](CCCCC)OC(=O)[C@@H](C)NC1=O | Active |
| CCCCC[C@@H]1OC(=O)[C@@H](C)N(C)C(=O)[C@H](CCCCC)OC(=O)[C@@H](C)N(C)C(=O)[C@H](CCCCC)OC(=O)[C@@H](C)N(C)C1=O | Active |
